“Also recorded” adds a separate entry of the source.
What was measured:
breast tissue = conditions: healthy women; cited from earlier work
[1] = tested on: WID-Breast5 (mean PMR of MTA1, HOXD12, LHX8, NEUROD1, CBLN4) in breast tissue; experiment: WID-Breast5 (MethyLight PMR) in breast biopsies before and after treatment (Set 3); format: in vivo, human
Source text: (§1) Study subjects for both trials were healthy premenopausal women aged 18 and above with regular menstrual cycles lasting 25-35 days and with no contraindications to mifepristone. The main exclusion criteria were: use of any hormonal or intrauterine contraception and pregnancy or breastfeeding two months prior to the study; a history of breast cancer or other malignancies and adnexal abnormality upon transvaginal ultrasound examination. All women were instructed to use barrier contraceptive methods throughout the duration of the study. After signing an informed consent, study subjects in both trials were randomised 1:1 or 1:2 into the vitamin arm (Triobe®—used as a comparator in these studies) or mifepristone arm in Trial 1 and Trial 2, respectively. One group (i.e. 16 BRCA carriers and 28 controls) was treated with 50 mg mifepristone (one quarter of 200 mg Mifegyne®, Exelgyn, Paris, France) every other day for two months in Trial 1 (n=28) and three months in Trial 2 (n=16) starting on the first day of the menstrual cycle. As mifepristone is only available in 200 mg tablets in Sweden, a study nurse divided the tablets into 4 parts (each 50 mg) and instructed the study subjects to take one part every other day. The other group (i.e. 8 BRCA carriers and 29 controls) received Triobe® tablets which are visually identical to mifepristone and were also divided into 4 parts [one quarter of TrioBe® contains 0.125 mg cyanocobalamin (Vitamin B12), 0.2 mg folic acid (Vitamin B9), and 0.75 mg Pyridoxinhydrochlorid (Vitamin B6)]. Tablets were dispensed for two weeks at a time. Core needle aspiration biopsies were collected during the luteal phase before treatment and at the end of treatment during the luteal phase (vitamin treatment) or corresponding time of the cycle (mifepristone treatment). The biopsies were collected under ultrasound guidance from the upper outer quadrant of one breast using a 14 Gauge needle with an outer diameter of 2.2 mm. The end-of-treatment breast biopsy was taken from the same area. From Trial 1, 12 women from each of the vitamin and mifepristone groups were included in this study; of these, 11 and 9 women, respectively, had provided sufficient DNA from the pre- and post-treatment biopsies for subsequent processing and analysis. […]
Sodium bisulfite conversion of genomic DNA and the MethyLight assay were performed as previously described (A. Jones et al., Role of DNA methylation and epigenetic silencing of HAND2 in endometrial cancer development. PLoS Med 10, e1001551 (2013)). […] The percentage of fully methylated molecules at a specific locus has been calculated by dividing the GENE:COL2A1 ratio of a sample by the GENE:COL2A1 ratio of SssI-treated human white blood cell DNA and multiplied by 100. […]

[2] = tested on: WID-Breast29 (mean methylation level of 37 CpGs) in breast tissue; experiment: WID-Breast29 in breast biopsies before and after treatment (clinical trials, Set 3); format: in vivo, human
Source text: Set 3: to assess the performance of the WID-Breast29 test monitoring preventive measures in real time. The samples were obtained from two clinical trials (FIG. 4) as follows.
Trial 1 was “Mifepristone treatment prior to insertion of a levonorgestrel releasing intrauterine system for improved bleeding control—a randomised controlled trial” (1) (EudraCT number: 2009-009014-40; Regional ethical review board at Karolinska Institutet permit 2009/144-31/4). The primary objective was to assess the effect of mifepristone pre-treatment on the initial bleeding pattern after insertion of a levonorgestrel releasing intrauterine system. An included secondary objective was to study the effect of mifepristone on breast tissue.
Trial 2 was “The Effect of a Progesterone Receptor Modulator on Breast Tissue in Women with BRCA-1 and -2 Mutations” (ClinicalTrials.gov Identifier: NCT01898312; regional ethical review board at Karolinska Institutet permit 2012/729 31/1). The core objective of this ongoing study is to assess the safety and effect of treatment with mifepristone on epithelial cell proliferation in human breast tissue in women with BRCA-1 or -2 mutations prior to protective mastectomy.
as §1, with “time.” for “time. Core needle aspiration biopsies were collected during the luteal phase before treatment and at the end of treatment during the luteal phase (vitamin treatment) or corresponding time of the cycle (mifepristone treatment). The biopsies were collected under ultrasound guidance from the upper outer quadrant of one breast using a 14 Gauge needle with an outer diameter of 2.2 mm. The end-of-treatment breast biopsy was taken from the same area. From Trial 1, 12 women from each of the vitamin and mifepristone groups were included in this study; of these, 11 and 9 women, respectively, had provided sufficient DNA from the pre- and post-treatment biopsies for subsequent processing and analysis.”

[3] = tested on: BRCA-mediated breast cancer; conditions: rodents; cited from earlier work
mammary cancer = conditions: mice; cited from earlier work
[4] = tested on: breast epithelial proliferation; conditions: three premenopausal volunteers; cited from earlier work
[5] = tested on: contralateral breast cancer; conditions: postmenopausal breast cancer patients; cited from earlier work
[6] = biopsies before and after 2-3 month treatment

Compound: CC#C[C@]1(O)CC[C@H]2[C@@H]3CCC4=CC(=O)CCC4=C3[C@@H](c3ccc(N(C)C)cc3)C[C@@]21C [mifepristone]
- effect on proliferation in breast tissue (breast tissue): antiproliferative effect
- BRCA mutant volunteers not showing a reduction of the WID-Breast5 after treatment ([1]; BRCA mutant volunteers (6/10)): 60%
- women exhibiting a lower WID-Breast5 after treatment ([1]; all women of the group (12 vitamins, 16 mifepristone), biopsies before and after 2-3 month treatment): 75%
- change in WID-Breast5 after treatment (paired-sample t-test) [1, 6]: highly significant reduction; also recorded: significantly reduced
- control volunteers showing a reduction of the WID-Breast5 after treatment ([1]; healthy control volunteers (n=6)): 100%
- BRCA mutant volunteers not showing a reduction of the WID-Breast29 after treatment ([2]; BRCA mutant volunteers (4/11)): 36%
- women exhibiting a lower WID-Breast29 after treatment ([2]; all women of the group (15 vitamins, 20 mifepristone), biopsies before and after 2-3 month treatment): 80%
- change in WID-Breast29 after treatment (paired-sample t-test) [2, 6]: highly significant reduction; also recorded: significantly reduced
- control volunteers showing a reduction of the WID-Breast29 after treatment ([2]; healthy control volunteers (n=9)): 100%
- prevention of BRCA-mediated breast cancer formation [3]: can be prevented
- effect on mammary cancer development (mammary cancer): reduce mammary cancer development

Compound: Denosumab: fully humanised monoclonal antibody that binds RANKL
- effect on breast epithelial proliferation [4]: reduce breast epithelial proliferation
- impact on the incidence of contralateral breast cancer [5]: does not appear to impact

Source: patent US20240043933A1, “METHODS FOR DETECTING AND PREDICTING BREAST CANCER” (UCL Business Ltd, priority 2020, published 2024)
